Test results reported in US20240043928A1, “BIOMARKERS FOR MYELODYSPLASTIC SYNDROME (MDS) AND METHODS OF USING THE SAME” (Eisai R&D Management Co., Ltd., priority 2020, published 2024).
Where two headings read alike, the source gives them in different places.

Key:
[1] = Non-human primate toxicity; format: in vivo
[2] = test system: human acute myeloid leukemia (AML) cell lines, including mutant U2AF1, SRSF2, and SF3B1 cells; conditions: panel of human AML cell lines incl. mutant U2AF1, SRSF2, SF3B1 cells; cited from earlier work
[3] = test system: TMEM14C AJ/CJ ratio and other splicing markers; assay: Phase I study NCT02841540: pharmacodynamics, splicing markers in peripheral blood (Nanostring nCounter panel); format: in vivo, human
Experimental: (§1) Plasma samples for PK analyses were collected during Cycle 1 on Day 1 and Day 4 (pre-dose and 0.5, 1, 2, 4, 6, 8, 10, and 24 hours post-dose), and pre-dose and 4 hours post-dose on Cycle 1 on Day 15. PK analyses were conducted using Phoenix® VVinNonlin. For pharmacodynamic and biomarker analyses, peripheral blood samples were collected into PAXgene® Blood RNA Tubes (BD Biosciences, San Jose, California) at Cycle 1 Day 1 (pre-dose and 1, 2, 4, 10 and 24 hours post-dose) for all patients. RNA was extracted using Maxwell® simplyRNA Blood Kit (Promega, Madison, Wisconsin). Target engagement (i.e., splicing modulation) was measured by assessing relative expression of representative pre- and mature-mRNA or aberrant and canonical transcripts at post-dose time points comparing to pre-dose, using a customized Nanostring nCounter gene expression panel (NanoString Technologies, Seattle, Washington). For splicing mutation analysis, peripheral blood was collected into PAXgene® Blood DNA Tubes (BD Biosciences, San Jose, California). Baseline splicing mutations were identified using the Focus:Myeloid™ Next Generation Sequencing (NGS) panel determined centrally by Cancer Genetics Inc. (Rutherford, NJ). Biomarker analyses of pretreatment samples were conducted using one-way ANOVA and MedCalc® software. Receiver-Operating-Characteristics (ROC) curves were performed according to the methodology described by Hanley and McNeil (Radiology. 1982;143(1):29-36; see also Zweig and Campbell, Clin Chem. 1993;39(4):561-577).

[4] = test system: xenograft models of leukemia expressing mutant SF3B1; conditions: oral administration; cited from earlier work
[5] = Phase I study NCT02841540: plasma pharmacokinetics; format: in vivo, human; conditions: for Cmax / half-life / AUC(0-t) / Tmax: human, plasma; for Cmax / half-life / AUC(0-t): geometric mean (CV %); for AUC(0-t): read-out: AUC0-24; for Tmax: median
Experimental: as §1

[6] = patients who experienced RBC TI

Structure (SMILES): C/C(=C\C=C\[C@@H](C)c1ccccn1)[C@H]1OC(=O)C[C@H](O)CC[C@@](C)(O)[C@@H](OC(=O)N2CCN(C)CC2)/C=C/[C@@H]1C [Compound 1, (2S,3S,4E,6S,7R,10R)-7,10-dihydroxy-3,7-dimethyl-12-oxo-2-[(2E,4E,6R)-6-(pyridine-2-yl)hepta-2,4-dien-2-yl]oxacyclododec-4-en-6-yl-4-methylpiperazine-1-carboxylate]
- dose-limiting toxicity (DLT) [1]: gastrointestinal distress and colitis
- growth inhibitory activity [2]: shows growth inhibitory activity
- modulation of splicing markers post-dosing ([3]; PBMC samples, NanoString probes, 61 splicing markers): general modulation of splicing markers post-dosing was observed
- modulation of relative expression of splicing markers ([3]; heat map, FIG. 5): dose-dependent modulation
- change of the TMEM14C AJ/CJ ratio with dosing [3, 6]: Downregulation
- time of nadir of the TMEM14C AJ/CJ ratio [3, 6]: 2 to 10 h
- in vivo antitumor activity [4]: induces in vivo antitumor activity
- Cmax ([5]; oral, 1.0 mg once daily): 0.835 ng/mL
- half-life ([5]; oral, 1.0 mg once daily): 5.1 h
- AUC(0-t) ([5]; oral, 1.0 mg once daily): 4.89 ng·h/mL
- Tmax ([5]; oral, 1.0 mg once daily): 2 h
- Cmax ([5]; oral, 2.0 mg once daily): 1.09 ng/mL
- half-life ([5]; oral, 2.0 mg once daily): 5.4 h
- AUC(0-t) ([5]; oral, 2.0 mg once daily): 8.39 ng·h/mL
- Tmax ([5]; oral, 2.0 mg once daily): 2 h
- Cmax ([5]; oral, 3.5 mg once daily): 2.78 ng/mL
- half-life ([5]; oral, 3.5 mg once daily): 5.4 h
- AUC(0-t) ([5]; oral, 3.5 mg once daily): 15.6 ng·h/mL
- Tmax ([5]; oral, 3.5 mg once daily): 1.5 h
- Cmax ([5]; oral, 5.0 mg once daily): 3.94 ng/mL
- half-life ([5]; oral, 5.0 mg once daily): 5.8 h
- AUC(0-t) ([5]; oral, 5.0 mg once daily): 24.5 ng·h/mL
- Tmax ([5]; oral, 5.0 mg once daily): 1 h
- Cmax ([5]; oral, 7.0 mg once daily): 9.61 ng/mL
- half-life ([5]; oral, 7.0 mg once daily): 5.3 h
- AUC(0-t) ([5]; oral, 7.0 mg once daily): 39.4 ng·h/mL
- Tmax ([5]; oral, 7.0 mg once daily): 1 h
- Cmax ([5]; oral, 10 mg once daily): 12.7 ng/mL
- half-life ([5]; oral, 10 mg once daily): 5.5 h
- AUC(0-t) ([5]; oral, 10 mg once daily): 51 ng·h/mL
- Tmax ([5]; oral, 10 mg once daily): 1 h
- Cmax ([5]; oral, 12 mg once daily): 12.2 ng/mL
- half-life ([5]; oral, 12 mg once daily): 5.4 h
- AUC(0-t) ([5]; oral, 12 mg once daily): 64.7 ng·h/mL
- Tmax ([5]; oral, 12 mg once daily): 2 h
- Cmax ([5]; oral, 14 mg once daily): 25.6 ng/mL
- half-life ([5]; oral, 14 mg once daily): 5.1 h
- AUC(0-t) ([5]; oral, 14 mg once daily): 108 ng·h/mL
- Tmax ([5]; oral, 14 mg once daily): 1 h
- Cmax ([5]; oral, 40 mg once daily): 73.3 ng/mL
- half-life ([5]; oral, 40 mg once daily): 4.5 h
- AUC(0-t) ([5]; oral, 40 mg once daily): 265 ng·h/mL
- Tmax ([5]; oral, 40 mg once daily): 0.5 h
- Cmax ([5]; 20 mg once daily): 33.6 ng/mL
- half-life ([5]; 20 mg once daily): 5.1 h
- AUC(0-t) ([5]; 20 mg once daily): 142 ng·h/mL
- Tmax ([5]; 20 mg once daily): 0.75 h
- Cmax ([5]; 30 mg once daily): 34.4 ng/mL
- half-life ([5]; 30 mg once daily): 5.3 h
- AUC(0-t) ([5]; 30 mg once daily): 159 ng·h/mL
- Tmax ([5]; 30 mg once daily): 1.25 h
- absorption ([5]; preliminary PK analysis): rapidly absorbed
- dose dependence of plasma exposure ([5]; preliminary PK analysis): dose-proportional increase in plasma exposure
- inter-individual variability on clearance/bioavailability ([5]; preliminary population PK modeling): about 34%
